Measurements published in PMC12527922, “Cocaine chemogenetics blunts drug-seeking by synthetic physiology” (Nature, 2025).
“And” between values parts separate entries of the source, which are not always exact repeats. Identical values can stand only once.

Tested on: GRABDA dopamine sensor, nucleus accumbens shell
Assay: Fibre photometry of dopamine (GRABDA) after cocaine administration
Type: in vivo, rat
Conditions: for GRABDA dopamine signal, Mean: ED Fig. 9d; for GRABDA response versus saline: cocaine 5, 10, 20 mg per kg i.p.
Procedure: Male Sprague–Dawley rats were anaesthetized with isoflurane (1.5–2%) and then placed onto a stereotaxic frame (Kopf) and injected with AAV5-Syn::coca-5HT3-IRES-mCherry (0.5 µl, 4.95 × 10^12 vg per ml) into the LHb (AP, −3.8 mm relative to bregma; ML, ±0.7 mm; DV, −5.25 mm, at a 10° angle) (n = 5) or underwent sham surgery (n = 6). Rats were also implanted with an optic fibre (400 µm core, 0.50 NA) attached to a 2.5 mm diameter ferrule (Thorlabs) directed to the medial shell of the nucleus accumbens (AP, +1.7 mm relative to bregma; ML, ±0.9 mm; DV, −7.0 mm). To ensure that AAV9-Syn::GRABDA1m was transduced at the direct vicinity of the fibre tip, we coated the fibre with the AAV (0.4 µl, 5 × 10^12 vg per ml) using a silk fibroin film before its implantation as previously described.
For fibre photometry, dopamine (GRABDA) dynamics were measured using a Tucker-Davis Technologies (TDT) system in anaesthetized rats. […] Data were acquired at 1 kHz. On the testing day, rats were anaesthetized (isoflurane: induction, 5%; maintenance, 3%) and attached to a photometry patch cord (400 μm core, 0.50 NA). GRABDA signals were then collected for 5 min, followed by a saline i.p. injection, and additional GRABDA signal measurement for 20 min. Cocaine was then injected i.p. at 20, 10 or 5 mg per kg, and the GRABDA signal was measured for an additional 20 min. Each rat was tested three times with cocaine doses administered in randomized order. Fibre photometry analyses were performed using scripts in MATLAB R2023b (MathWorks) based on codes from the Barker (https://github.com/djamesbarker)[64] and Lerner (https://github.com/talialerner/)[65] laboratories. […] The GRABDA signal was normalized to values at 1 min before saline or cocaine injection and shown as the average z-scored activity per min. […] Fibre photometry data are represented as mean ± s.e.m. Statistical analyses were performed using Prism 10 (GraphPad).

[1] = ED Fig. 9a, Cocaine 10 mg/kg, Time 5
[2] = ED Fig. 9a, Cocaine 10 mg/kg, Time 6
[3] = ED Fig. 9a, Cocaine 10 mg/kg, Time 7
[4] = ED Fig. 9a, Cocaine 10 mg/kg, Time 8
[5] = ED Fig. 9a, Cocaine 10 mg/kg, Time 9
[6] = ED Fig. 9a, Cocaine 10 mg/kg, Time 10
[7] = ED Fig. 9a, Cocaine 10 mg/kg, Time 11
[8] = ED Fig. 9a, Cocaine 10 mg/kg, Time 12
[9] = ED Fig. 9a, Cocaine 10 mg/kg, Time 13
[10] = ED Fig. 9a, Cocaine 10 mg/kg, Time 14
[11] = ED Fig. 9a, Cocaine 10 mg/kg, Time 15
[12] = ED Fig. 9a, Cocaine 10 mg/kg, Time 16
[13] = ED Fig. 9a, Cocaine 10 mg/kg, Time 17
[14] = ED Fig. 9a, Cocaine 10 mg/kg, Time 18
[15] = ED Fig. 9a, Cocaine 10 mg/kg, Time 19
[16] = ED Fig. 9a, Cocaine 10 mg/kg, Time -1

COC(=O)[C@H]1[C@@H](OC(=O)c2ccccc2)C[C@@H]2CC[C@H]1N2C [cocaine]
GRABDA dopamine signal, single rats (ED Fig. 9a, Cocaine 10 mg/kg, Time 4): 1.256 and 1.397 and 0.09982 and 0.6394 and 1.0999 and 0.05112
GRABDA dopamine signal, AVG [1]: 1.193
GRABDA dopamine signal, single rats [1]: 1.343 and 2.078 and 0.3984 and 0.8156 and 2.4787 and 0.0445
GRABDA dopamine signal, AVG [2]: 1.422
GRABDA dopamine signal, single rats [2]: 1.711 and 2.382 and 0.7218 and 1.242 and 2.331 and 0.1429
GRABDA dopamine signal, AVG [3]: 1.596
GRABDA dopamine signal, single rats [3]: 1.781 and 2.522 and 1.248 and 1.497 and 2.407 and 0.1218
GRABDA dopamine signal, AVG [4]: 1.699
GRABDA dopamine signal, single rats [4]: 2.125 and 2.686 and 1.2639 and 1.736 and 2.313 and 0.06957
GRABDA dopamine signal, AVG [5]: 1.935
GRABDA dopamine signal, single rats [5]: 2.098 and 2.8744 and 1.781 and 1.888 and 2.927 and 0.03932
GRABDA dopamine signal, AVG [6]: 2.176
GRABDA dopamine signal, single rats [6]: 2.19 and 2.83 and 2.002 and 2.24 and 3.737 and 0.0549
GRABDA dopamine signal, AVG [7]: 2.088
GRABDA dopamine signal, single rats [7]: 2.259 and 2.779 and 2.031 and 2.445 and 2.889 and 0.1232
GRABDA dopamine signal, AVG [8]: 1.996
GRABDA dopamine signal, single rats [8]: 2.418 and 2.64 and 2.12 and 2.366 and 2.425 and 0.00481
GRABDA dopamine signal, AVG [9]: 2.15
GRABDA dopamine signal, single rats [9]: 2.55 and 2.491 and 2.555 and 2.51 and 2.634 and 0.161
GRABDA dopamine signal, AVG [10]: 2.1808
GRABDA dopamine signal, single rats [10]: 2.759 and 2.573 and 2.372 and 2.6549 and 2.629 and 0.09693
GRABDA dopamine signal, AVG [11]: 2.145
GRABDA dopamine signal, single rats [11]: 2.608 and 2.303 and 2.535 and 2.6631 and 2.692 and 0.06715
GRABDA dopamine signal, AVG [12]: 2.005
GRABDA dopamine signal, single rats [12]: 2.483 and 2.2 and 2.525 and 2.513 and 2.213 and 0.09632
GRABDA dopamine signal, AVG [13]: 2.106
GRABDA dopamine signal, single rats [13]: 2.751 and 1.972 and 2.4136 and 2.994 and 2.448 and 0.05475
GRABDA dopamine signal, AVG [14]: 1.975
GRABDA dopamine signal, single rats [14]: 2.385 and 1.7832 and 2.833 and 2.375 and 2.433 and 0.03971
GRABDA dopamine signal, AVG [15]: 1.865
GRABDA dopamine signal, single rats [15]: 2.396 and 1.613 and 2.323 and 2.558 and 2.225 and 0.07693
GRABDA dopamine signal, AVG [16]: 0.04715
GRABDA dopamine signal, single rats [16]: 0.0433 and 0.0669 and 0.08953 and 0.0687
GRABDA dopamine signal, AVG (ED Fig. 9c, Cocaine 20 mg/kg, Time 0): 0.0619
GRABDA dopamine signal, AVG (ED Fig. 9c, Cocaine 20 mg/kg, Time 1): 0.07229
GRABDA dopamine signal, AVG (ED Fig. 9c, Cocaine 20 mg/kg, Time 2): 0.3247
GRABDA dopamine signal, AVG (ED Fig. 9c, Cocaine 20 mg/kg, Time 3): 0.7746
GRABDA dopamine signal, AVG (ED Fig. 9c, Cocaine 20 mg/kg, Time 4): 1.201
GRABDA dopamine signal, AVG (ED Fig. 9c, Cocaine 20 mg/kg, Time 5): 1.589
GRABDA dopamine signal, AVG (ED Fig. 9c, Cocaine 20 mg/kg, Time 6): 1.681
GRABDA dopamine signal, AVG (ED Fig. 9c, Cocaine 20 mg/kg, Time 7): 1.863
GRABDA dopamine signal, AVG (ED Fig. 9c, Cocaine 20 mg/kg, Time 8): 1.725
GRABDA dopamine signal, AVG (ED Fig. 9c, Cocaine 20 mg/kg, Time 9): 1.85
GRABDA dopamine signal, AVG (ED Fig. 9c, Cocaine 20 mg/kg, Time 10): 1.747
GRABDA dopamine signal, AVG (ED Fig. 9c, Cocaine 20 mg/kg, Time 11): 1.666
GRABDA dopamine signal, AVG (ED Fig. 9c, Cocaine 20 mg/kg, Time 12): 1.553
GRABDA dopamine signal, AVG (ED Fig. 9c, Cocaine 20 mg/kg, Time 13): 1.4
GRABDA dopamine signal, AVG (ED Fig. 9c, Cocaine 20 mg/kg, Time 14): 1.393
GRABDA dopamine signal, AVG (ED Fig. 9c, Cocaine 20 mg/kg, Time 15): 1.467
GRABDA dopamine signal, AVG (ED Fig. 9c, Cocaine 20 mg/kg, Time 16): 1.282
GRABDA dopamine signal, AVG (ED Fig. 9c, Cocaine 20 mg/kg, Time 17): 1.1
GRABDA dopamine signal, AVG (ED Fig. 9c, Cocaine 20 mg/kg, Time 18): 1.175
GRABDA dopamine signal, AVG (ED Fig. 9c, Cocaine 20 mg/kg, Time 19): 1.238
GRABDA dopamine signal, AVG (ED Fig. 9c, Cocaine 20 mg/kg, Time -1): -0.01168
GRABDA dopamine signal, Mean (Cocaine 20 mg/kg, Time 0): -0.2698
GRABDA dopamine signal, Mean (Cocaine 20 mg/kg, Time 1): -0.1247
GRABDA dopamine signal, Mean (Cocaine 20 mg/kg, Time 2): 0.09345
GRABDA dopamine signal, Mean (Cocaine 20 mg/kg, Time 3): 0.3137
GRABDA dopamine signal, Mean (Cocaine 20 mg/kg, Time 4): 0.5516
GRABDA dopamine signal, Mean (Cocaine 20 mg/kg, Time 5): 0.5577
GRABDA dopamine signal, Mean (Cocaine 20 mg/kg, Time 6): 0.3392
GRABDA dopamine signal, Mean (Cocaine 20 mg/kg, Time 7): 0.3431
GRABDA dopamine signal, Mean (Cocaine 20 mg/kg, Time 8): 0.2873
GRABDA dopamine signal, Mean (Cocaine 20 mg/kg, Time 9): 0.5323
GRABDA dopamine signal, Mean (Cocaine 20 mg/kg, Time 10): 0.4252
GRABDA dopamine signal, Mean (Cocaine 20 mg/kg, Time 11): 0.3604
GRABDA dopamine signal, Mean (Cocaine 20 mg/kg, Time 12): 0.1832
GRABDA dopamine signal, Mean (Cocaine 20 mg/kg, Time 13): 0.2813
GRABDA dopamine signal, Mean (Cocaine 20 mg/kg, Time 14): 0.2778
GRABDA dopamine signal, Mean (Cocaine 20 mg/kg, Time 15): 0.4094
GRABDA dopamine signal, Mean (Cocaine 20 mg/kg, Time 16): 0.4918
GRABDA dopamine signal, Mean (Cocaine 20 mg/kg, Time 17): 0.3214
GRABDA dopamine signal, Mean (Cocaine 20 mg/kg, Time 18): 0.2818
GRABDA dopamine signal, Mean (Cocaine 20 mg/kg, Time 19): 0.2119
GRABDA dopamine signal, Mean (Cocaine 20 mg/kg, Time -1): 0.05504
GRABDA response versus saline (coca-5HT3 rats): did not produce statistically significant increases
GRABDA response versus saline (control rats): significantly increased
